According to patent EP0126348A2, “Composition for rectal administration and method of promoting rectal drug absorption” (priority 1983, dated 1984):
Like-named read-outs stand apart in the source and are kept apart here. Each block holds one compound with its values, some of them ahead of it.

Columns and labels:
[1] = Blood concentration of drug after rectal administration of suppositories to fasted dogs (bioassay); format: in vivo; settings: rectal suppository, 100 mg in potency
Description: (§1) The suppositories were administered rectally to dogs or rabbits fasted for 24 hours. After administration, blood or urine sampling was conducted at times intervals and the drug concentration in blood or urinary drug excretion was estimated by determining the activity concentration by the bioassay method.

[2] = Urinary excretion of drug after rectal administration of suppositories to fasted rabbits (bioassay); format: in vivo; settings: rabbit, 100 mg, rectal suppository, 100 mg in potency, read-out: Urinary excretion (0-6 hours)
Description: as §1

[3] = in vivo, base WITEPSOL H-5, additive Na caprate, 3%
[4] = dog, blood, 100 mg, base WITEPSOL H-5, additive Na caprate, 3% NIKKOL MYS-40, 4%, read-out: AUC

Compound: NCC[C@H](O)C(=O)N[C@@H]1C[C@H](N)[C@@H](O[C@H]2O[C@H](CN)[C@@H](O)[C@H](O)[C@H]2O)[C@H](O)[C@H]1O[C@H]1O[C@H](CO)[C@@H](O)[C@H](N)[C@H]1O [Amikacin]
- AUC ([1]; dog, in vivo, 100 mg, base WITEPSOL H-15, additive Na caprate, 3% NIKKOL BL-21, 3%, read-out: AUC): 17900 ng·h/mL
- AUC ([1]; dog, in vivo, 100 mg, base WITEPSOL H-15, additive None, read-out: AUC): 1000 ng·h/mL
- dose excreted at 6 h ([2]; in vivo, base WITEPSOL H-5, additive Na caprate, 3% NIKKOL MYS-40, 4%): 56%
- dose excreted at 6 h ([2]; in vivo, base WITEPSOL H-5, additive Na caprate, 3% Sodium carbonate, 4%): 55.5%
- dose excreted at 6 h [2, 3]: 35%

- dose excreted at 6 h ([2]; urine, base WITEPSOL W-35, additive Glycerol monostearate, 3% Na caprate, 3%): 48.5%
- dose excreted at 6 h ([2]; urine, base WITEPSOL W-35, additive Na caprate, 3% Disodium phosphate,3%): 40%
- dose excreted at 6 h ([2]; urine, base WITEPSOL W-35, additive Na caprate, 3%): 30.1%
Compound: NC[C@H]1O[C@H](O[C@H]2[C@H](O)[C@@H](O[C@H]3O[C@H](CO)[C@@H](O)[C@H](N)[C@H]3O)[C@H](N)C[C@@H]2N)[C@H](N)[C@@H](O)[C@@H]1O [Bekanamycin]

- AUC [1, 4]: 22200 ng·h/mL
Compound: CO/N=C(\C(=O)N[C@@H]1C(=O)N2C(C(=O)O)=C(CSc3nc(=O)c(=O)[nH]n3C)CS[C@H]12)c1csc(N)n1 [Cefatriaxone]

Compound: CC(C)(O/N=C(\C(=O)N[C@@H]1C(=O)N2C(C(=O)[O-])=C(C[n+]3ccccc3)CS[C@H]12)c1csc(N)n1)C(=O)O [Ceftazidime]
- AUC ([1]; dog, in vivo, 100 mg, base WITEPSOL H-5, additive Na caprate, 3% Lysine, 4%, read-out: AUC): 30100 ng·h/mL
- AUC ([1]; dog, in vivo, 100 mg, base WITEPSOL H-5, additive Na caprate, 3% Na citrate, 4%, read-out: AUC): 27600 ng·h/mL
- AUC ([1]; dog, in vivo, 100 mg, base WITEPSOL H-5, additive Na caprate, 3% Sodium carbonate, 4%, read-out: AUC): 29800 ng·h/mL
- AUC ([1]; base WITEPSOL H-5, additive Na caprate, 3% Sodium carbonate, 4%): 30900 ng·h/mL

- AUC ([1]; dog, blood, 100 mg, base WITEPSOL H-5, additive NIKKOL MYS-40, 4%, read-out: AUC): 1000 ng·h/mL
- AUC ([1]; dog, blood, 100 mg, base WITEPSOL H-5, additive Na caprate, 3% NIKKOL BL-21, 4% Disodium hydrogen phosphate, 1%, read-out: AUC): 42000 ng·h/mL
- AUC ([1]; dog, blood, 100 mg, base WITEPSOL H-5, additive Na caprate, 3% NIKKOL BL-21, 4%, read-out: AUC): 37000 ng·h/mL
- AUC ([1]; dog, blood, 100 mg, base WITEPSOL H-5, additive Na caprate, 3% NIKKOL MYS-40, 4% Sodium carbonate, 4%, read-out: AUC): 39900 ng·h/mL
- AUC [1, 4]: 27400 ng·h/mL
- AUC ([1]; dog, blood, 100 mg, base WITEPSOL H-5, additive Na caprate, 3% Sodium carbonate, 4%, read-out: AUC): 24400 ng·h/mL
- AUC ([1]; dog, blood, 100 mg, base WITEPSOL H-5, additive Na caprate, 3%, read-out: AUC): 14400 ng·h/mL
- AUC ([1]; dog, blood, 100 mg, base WITEPSOL H-5, additive None, read-out: AUC): 800 ng·h/mL
Compound: NC[C@@H]1CC[C@@H](N)[C@@H](O[C@H]2[C@H](O)[C@@H](O[C@H]3O[C@H](CO)[C@@H](O)[C@H](N)[C@H]3O)[C@H](N)C[C@@H]2N)O1 [Dibekacin]

Compound: CNC[C@@H]1CC[C@@H](N)[C@@H](O[C@H]2[C@H](O)[C@@H](O[C@H]3OC[C@](C)(O)[C@H](NC)[C@H]3O)[C@H](N)C[C@@H]2N)O1 [Micronomicin]
- dose excreted at 6 h ([2]; in vivo, base WITEPSOL H-5, additive Na caprate, 3% Arginine Na, 4%): 48.2%
- dose excreted at 6 h ([2]; in vivo, base WITEPSOL H-5, additive Na caprate, 3% NIKKOL BL-21, 4%): 50.3%
- dose excreted at 6 h [2, 3]: 39.2%

- dose excreted at 6 h ([2]; urine, base WITEPSOL H-5, additive Na caprate, 3% Lysine, 4%): 48%
- dose excreted at 6 h ([2]; urine, base WITEPSOL H-5, additive Na caprate, 3% NIKKOL TO-10M, 4%): 52.6%
- dose excreted at 6 h ([2]; urine, base WITEPSOL H-5, additive Na caprate, 3%): 40%
Compound: CCN[C@@H]1C[C@H](N)[C@@H](O[C@H]2OC(CN)=CC[C@H]2N)[C@H](O)[C@H]1O[C@H]1OC[C@](C)(O)[C@H](NC)[C@H]1O [Netilmicin]

- dose excreted at 6 h ([2]; urine, base WITEPSOL H-15, additive Na caprate, 2% NIKKOL BL-25, 4%): 51.6%
- dose excreted at 6 h ([2]; urine, base WITEPSOL H-15, additive Na caprate, 2%): 30.8%
- dose excreted at 6 h ([2]; urine, base WITEPSOL H-15, additive Na caprate, 3% Trisodium phosphate,4%): 55%
Compound: CN[C@@H]1[C@@H](O)[C@@H](O[C@@H]2[C@@H](O)[C@H](O[C@H]3OC(CN)=CC[C@H]3N)[C@@H](N)C[C@H]2N)OC[C@]1(C)O [Sisomicin]

Compound: NC[C@H]1O[C@H](O[C@H]2[C@H](O)[C@@H](O[C@H]3O[C@H](CO)[C@@H](O)[C@H](N)[C@H]3O)[C@H](N)C[C@@H]2N)[C@H](N)C[C@@H]1O [Tobramycin]
- dose excreted at 6 h ([2]; in vivo, base WITEPSOL W-35, additive Na caprate, 2% NIKKOL BL-9, 4%): 53.8%
- dose excreted at 6 h ([2]; in vivo, base WITEPSOL W-35, additive Na caprate, 2%): 41.6%
- dose excreted at 6 h ([2]; in vivo, base WITEPSOL W-35, additive Na caprate, 3% Disodium tatrate, 4% NIKKOL BL-9, 4%): 49.2%

- AUC ([1]; base WITEPSOL H-5, additive Na caprate, 3%): 14800 ng·h/mL
- AUC ([1]; base WITEPSOL H-5, additive Na caprate, 3% NIKKOL BL-21, 4%): 30000 ng·h/mL
- AUC ([1]; base WITEPSOL H-5, additive Na caprate, 3% NIKKOL MYS-40, 4%): 21700 ng·h/mL
- AUC ([1]; base WITEPSOL H-5, additive Na caprate, 3% Sodium carbonate, 2%): 21700 ng·h/mL
- AUC ([1]; base WITEPSOL H-5, additive None): 1200 ng·h/mL
Compound: Fortimicin
